# What was measured:
# [1] = Stability and radiochemical purity of the [3H]-Compound 10 formulation incubated at 37° C.; format: physicochemical
# Experimental: The stability and radiochemical purity (RCP) of the radiolabeled [^3H]-Compound 10 was established in a concurrent experiment where a formulation of radiolabeled [3^H]-Compound 10 was incubated at 37° C. and radiochemical purity (RCP) of aliquots were analyzed over time and determined to be ˜ 95.5% (Days 0, 7, 14 and 30), 94.5% (Day 60), 93% (Day 90), and 83% (Day 180).
# IL-6 [2] = assay: Inhibition of IL-6 in LPS-stimulated primary PBMCs (ELISA, MSD U-plex); format: cell-based; conditions: human PBMCs, LPS (500 ng/mL), Compound 10 (150 nM), 24 hrs; MSD platform; FIG. 15
# Experimental: (§1) Primary peripheral blood mononuclear cells (PBMCs) freshly isolated from healthy human donors were obtained from AllCells Inc. and utilized for assays immediately. Compound 10 was dissolved in DMSO as a 10 mM stock and used to prepare compound source plates. A serial dilution (8-point dose-response) and compound transfer was performed using the ECHO 550 (Labcyte, Sunnyvale, Calif.) into 96-well clear bottom assay plates (Greiner Bio-One) with appropriate DMSO backfill for a final DMSO concentration of 0.05%. PBMCs were plated at 2×10e^5 cells/well in Roswell Park Memorial Institute (RPMI) 1640 Medium (Catalog #21870-100, Buffalo, N.Y.) with 1% L-glutamine, 1% HEPES, 1% Sodium Pyruvate, 2% Sodium Bicarbonate supplemented with 100 units/mL penicillin, 50 μg/mL streptomycin and 1% fetal bovine serum (Catalog #16140089, Life Technologies, Carlsbad, Calif.). […]
# (§2) Supernatants were diluted appropriately for ELISA. […] Following several washes to remove unbound avidin-HRP, the TMB substrate was added and the plates were read on the Cytation 3 plate reader (Biotek Inc., Winooski, Vt.) at an absorbance of 450 nm with correction at 570 nm. […] Inhibition profile and EC50 was calculated using Prism 5 (GraphPad Software Inc, La Jolla, Calif., USA). […] Levels of cytokines were calculated using software form Meso Scale Discovery.
# [3] = Persistence of radiolabeled Compound 10 in rabbit knee joints; format: in vivo; conditions: rabbits; two single IA injections in two knees at 4 μg/knee; after 1 hour up to 168 hours
# Interleukin 1β (IL1β) = assay: Inhibition of inflammatory cytokine expression in IL-1β-stimulated synovial fibroblasts, qRT-PCR; format: cell-based; conditions: human synovial fibroblasts, IL-1β (100 ng/mL), Compound 10 at 100 nM and 30 nM, 24 hrs; FIG. 14B
# Experimental: Synovial fibroblasts were plated in 6-well plates at 0.5 million cells per well in Leibovitz's L-15 Medium with 1% FBS. Compound 10 dissolved in DMSO was added to the wells at different concentrations. […] Cells were harvested by trypsinization, pelleted, washed with PBS and Total RNA was isolated using RNeasy Mini Kit (Qiagen). cDNA was synthesized using the QuantiTect Reverse Transcription kit (Qiagen). qRT-PCR was performed with QuantiTect SYBR Green PCR Kit (Qiagen) and gene-specific primers, using CFX384 (Biorad). Transcripts were quantitated by comparative Ct method and normalized to endogenous controls, β-actin and GAPDH.
# IL-8 = assay: Inhibition of IL-8 in LPS-stimulated primary PBMCs (MSD U-plex); format: cell-based; conditions: human PBMCs, LPS (500 ng/mL), Compound 10 (150 nM), 24 hrs; MSD platform; FIG. 15
# Experimental: as §1, §2
# IL-6 [4] = assay: Inhibition of IL-6 in LPS-stimulated human monocyte cells (THP-1), HTRF; format: cell-based; conditions: Homo sapiens; THP-1 cells, LPS 500 ng/mL, IL-6 by HTRF
# Experimental: Human Monocyte Cell Culture: A human monocyte cell line (THP-1 cells; Catalog #TIB-202, ATCC, Manassas, Va.) was cultured in Roswell Park Memorial Institute (RPMI) 1640 Medium (Catalog #21870-100, Buffalo, N.Y.) with 1% L-glutamine, 1% HEPES, 1% sodium pyruvate, 2% sodium bicarbonate supplemented with 100 units/mL penicillin, 50 μg/mL streptomycin, 2-mercaptoethanol (0.05 mM) [basal medium] and 10% fetal bovine serum (Catalog #16140089, Life Technologies, Carlsbad, Calif.) at 37° C. and 5% CO2.
# Compound Screening: THP-1 cells were cultured in basal media with 1% FBS for 24 hours before the start of the assay. Each compound of Formula (I) was dissolved in DMSO as a 10 mM stock and used to prepare compound source plates. Serial dilution (1:3, 10-point dose-response curves starting from 10 μM) and compound transfer was performed using the ECHO 550 (Labcyte, Sunnyvale, Calif.) into 384-well white low volume assay plates (Greiner Bio-One) with appropriate DMSO backfill for a final DMSO concentration of 0.1%. THP-1 cells were plated at 5000 cells/well in the 384-well plates and incubated at 37° C. for 2 h. 500 ng/mL of LPS was added after 2 hours and cells were incubated for another 22 hours at 37° C. Plates were spun in a centrifuge for 1 minute at 10,000 rpm and a mixture of anti-IL-6 XL665, and anti-IL-6 Cryptate diluted in reconstitution buffer (Cisbio Inc.) was added to each well. Following incubation for 3 hrs at room temperature, homogeneous time-resolved fluorescence (HTRF) was measured using the Envision (Perkin Elmer) at 665 nm and […]. The ratio of fluorescence at 665 nm to 620 nm was used as a readout for IL-6 quantification. All samples were processed in duplicate. Readings were normalized to DMSO treated cells and normalized activities were utilized for EC50 calculations using the dose-response log (inhibitor) vs. response -variable slope (four parameters) nonlinear regression feature available in GraphPad Prism 5.0 (or Dotmatics). For EC50 of >10 μM, the percent inhibition at 10 μM is provided.
structure (smiles),measurement,setting,value
CC(C)CC(=O)Nc1cncc(-c2ccc3[nH]nc(-c4nc5c(-c6cccc(F)c6)cncc5[nH]4)c3c2)c1 [Compound 10],radiochemical purity (RCP) of formulation over time,[1]; Day 60,94.5%
same,radiochemical purity (RCP) of formulation over time,[1]; Day 90,93%
same,radiochemical purity (RCP) of formulation over time,[1]; Day 180,83%
same,radiochemical purity (RCP) of formulation over time,"[1]; Days 0, 7, 14 and 30",~95.5%
same,Inhibition of IL-6,IL-6 [2],Inhibition
same,administered radioactivity recovered in the knee,[3],75%
same,inhibition of inflammatory cytokine secretion (qRT-PCR),Interleukin 1β (IL1β),inhibition
same,Inhibition of IL-8,IL-8,Inhibition
same,EC50,IL-6 [4],13 nM
